Test results reported in US11753399B2, “Therapeutic compounds” (Gilead Sciences, Inc., priority 2018, dated 2023).

Tests used:
HIV-IIIb = assay: Test A: Antiviral Assay in MT4 Cells; type: cell-based, HIV-1; conditions: Human immunodeficiency virus 1, MT4, 120 h, inhibition of virus-induced cell killing, MT-4 cells, HIV-IIIb, 5 days, values normalized to 100%; for inhibition at 0.01 µM: from dose response curve at 0.01 μM (10 nM), read-out: % inhibition at 0.01 μM; for inhibition at 0.2 µM: from dose response curve at 0.20 μM (200 nM), read-out: % inhibition at 0.20 μM
Experimental: (§1) MT-4 cells were next mixed with HIV-IIIb at a multiplicity of infection (m.o.i.) of 0.003 for 1 hour, after which time 35 μL of virus/cell mixture (2000 cells) was immediately added to each well containing 40 μL of diluted compound. The plates were then incubated at 37° C. for 5 days. After 5 days of incubation, 25 μl of 2× concentrated CellTiter-Glo Reagent (catalog #G7571, Promega Biosciences, Inc., Madison, Wis.) was added to each well containing MT-4 cells. Cell lysis was carried out by incubating at room temperature for 10 min and then chemiluminescence was read.

[1] = Test B: Cytotoxicity Assay (same protocol as Test A, uninfected cells); type: cell-based; conditions: human, uninfected MT-4 cells, CellTiter-Glo
Experimental: as §1, with “read. […] Compound cytotoxicity and the corresponding CC50 values was determined using the same protocol as described in the antiviral assay (Test A) except that uninfected cells were used.” for “read.”

Row | Structure (SMILES) | inhibition at 0.01 µM (HIV-IIIb) | inhibition at 0.2 µM (HIV-IIIb) | CC50 at 5 days [1]
1 | Cn1nc(NS(C)(=O)=O)c2c(Cl)ccc(-c3ccc(C#CC(C)(C)S(=O)(=O)C4CC4)nc3[C@H](Cc3cc(F)cc(F)c3)NC(=O)Cn3nc(C(F)(F)F)cc3C3CC3)c21 [Example 44] | 87% | 92% | > 54.8 µM
2 | Cn1nc(NS(=O)(=O)C2CC2)c2c(Cl)ccc(-c3ccc(C#CC(C)(C)S(=O)(=O)C4CC4)nc3[C@H](Cc3cc(F)cc(F)c3)NC(=O)Cn3nc(C(F)F)c4c3C(F)(F)CCC4(F)F)c21 [Example 39] | 99% | 99% | > 57.1 µM
3 | Cn1nc(NS(C)(=O)=O)c2c(Cl)ccc(-c3ccc(C#CC(C)(C)S(=O)(=O)C4CC4)nc3[C@H](Cc3cc(F)cc(F)c3)NC(=O)CCn3cccn3)c21 [Example 60] | 100% | 100% | 19.2 µM
4 | Cn1nc(NS(=O)(=O)CC2CC2)c2c(Cl)ccc(-c3ccc(C#CC(C)(C)S(=O)(=O)C4CC4)nc3[C@H](Cc3cc(F)cc(F)c3)NC(=O)Cn3nc(C(F)(F)F)c4c3C(F)(F)[C@@H]3C[C@H]43)c21 [Example 15] | 98% | 98% | > 57.1 µM
5 | CC(C)(C#Cc1ccc(-c2ccc(F)c3c(NS(=O)(=O)C4CC4)nn(CC(F)F)c23)c([C@H](Cc2cc(F)cc(F)c2)NC(=O)Cn2nc(C(F)(F)F)c3c2C(F)(F)[C@@H]2C[C@H]32)n1)S(=O)(=O)C1CC1 [Example 57] | 59% | 91% | > 57.1 µM
6 | Cn1nc(Nc2nnc(C(F)F)o2)c2c(Cl)ccc(-c3ccc(C#CC(C)(C)S(=O)(=O)C4CC4)nc3[C@H](Cc3cc(F)cc(F)c3)NC(=O)Cn3nc(C(F)F)c4c3C(F)(F)[C@@H]3C[C@H]43)c21 [Example 30] | 99% | 99% | > 57.1 µM
7 | CC(C)(C#Cc1ccc(-c2ccc(Cl)c3c(NS(=O)(=O)C4CC4)nn(CC(F)F)c23)c([C@H](Cc2cc(F)cc(F)c2)NC(=O)Cn2nc(C(F)F)c3c2C(F)(F)CCC3(F)F)n1)S(=O)(=O)C1CC1 [Example 33] | 97% | 97% | > 57.1 µM
8 | Cn1nc(NS(C)(=O)=O)c2c(Cl)ccc(-c3ccc(C#CC(C)(C)S(=O)(=O)C4CC4)nc3[C@H](Cc3cc(F)cc(F)c3)NC(=O)Cn3nc(C(F)F)cc3C(F)F)c21 [Example 43] | 87% | 87% | > 57.1 µM
9 | Cn1nc(NS(=O)(=O)C2CC2)c2c(Cl)ccc(-c3ccc(C#CC(C)(C)S(=O)(=O)C4CC4)nc3[C@H](Cc3cc(F)cc(F)c3)NC(=O)Cn3nc(C(F)F)c4c3C(F)(F)[C@@H]3C[C@H]43)c21 [Example 12] | 94% | 94% | > 57.1 µM
10 | CC(C)(C#Cc1ccc(-c2ccc(Cl)c3c(NS(C)(=O)=O)nn(CC(F)(F)F)c23)c([C@H](Cc2cc(F)cc(F)c2)NC(=O)Cn2nc(C(F)F)c3c2C(F)(F)[C@@H]2C[C@H]32)n1)S(=O)(=O)C1CC1 [Example 17] | 98% | 98% | > 24 µM
11 | CC(C)(C#Cc1ccc(-c2ccc(Cl)c3c(NS(C)(=O)=O)nn(CC(F)F)c23)c([C@H](Cc2cc(F)cc(F)c2)NC(=O)Cn2nc(C(F)F)c3c2C(F)(F)CCC3(F)F)n1)S(=O)(=O)C1CC1 [Example 42] | 89% | 89% | > 57.1 µM
12 | Cn1nc(NS(C)(=O)=O)c2c(Cl)ccc(-c3ccc(C#CC(C)(C)S(=O)(=O)C4CC4)nc3[C@H](Cc3cc(F)cc(F)c3)NC(=O)Cn3cnnn3)c21 [Example 45] | 96% | 97% | 20.1 µM
13 | CC(C)(C#Cc1ccc(-c2ccc(Cl)c3c(NS(=O)(=O)C4CC4)nn(CC(F)F)c23)c([C@H](Cc2cc(F)cc(F)c2)NC(=O)Cn2nc(C(F)F)c3c2C(F)(F)[C@@H]2C[C@H]32)n1)S(=O)(=O)C1CC1 [Example 16] | 98% | 98% | > 57.1 µM
